# Key:
# [1] = molecular target: mTOR (Homo sapiens, UniProt P42345); experiment: mTOR HTR-FRET Assay; assay type: biochemical
# Protocol: The following is an example of an assay that can be used to determine the mTOR inhibitory activity of a test compound. Reagents are prepared as follows:
# “Simple TOR buffer” (used to dilute high glycerol TOR fraction): 10 mM Tris pH 7.4, 10 mM NaCl, 0.1% Tween-20, 1 mM DTT (from 1M stock frozen at −20° C. just prior to use). For convenience a large quantity of “Simple TOR buffer” w/o DTT can be stored at 4° C. It can be brought to room temperature and DTT added just prior to dilution of TOR fraction.
# 5XKB/5XMn/5×ATP solution (used to dilute substrate GST-p70S6kin 81 a.a. just prior to use) (40 ml screen quantity shown):
# Enzyme solution: Dilute TOR fraction 1:14 in “Simple TOR Buffer”. For current lot that is 640 μg/ml TOR fraction diluted 14× to yield 45.7 μg/ml TOR in buffer (i.e. 7.85 ml TOR pooled fraction+102.1 ml Simple TOR buffer=110 ml 14× diluted TOR fraction). Each Enzyme Lot must be QC'd prior to assay.
# Substrate solution: This may be prepared just prior to assay if preferred. Dilute 5.3 mg/ml GST-p70S6kinase fragment stock to 3.5 μg/ml (97 nM) working stock in 5XKB/5XMn/5×ATP solution (i.e. 26.41 μL (5.3 mg/ml) GST-p70S6+40 ml 5XKB/5XMn/5×ATP=40 ml 3.5 μg/ml (97 nM)).
# Assay Buffer (for dilution of Antibodies used in Antibody Detection Reagent):
# Antibody Detection Reagent (this reagent should be made just prior to addition to Assay Plates):
# Using PlateTrak program (Screen) or Matrix Pipettor (SAR), 19.5 μL of diluted TOR fraction is added to assay plate in all test, reference or positive control wells. 19.5 μL of “Simple TOR buffer” is added to all negative control wells. If treating multiple plates with the same compounds, can increase volume of enzyme to multiples of 19.5 μL in a tall 384 well polypropylene plate.
# Using EP3, 0.5 μl of test, reference or control DMSO is added to each well with mixing. Plates are incubated for 30 minutes at room temperature.
# Using PlateTrak program (Screen) or Matrix Pipettor (SAR) 5 μL of 5XKB/5XMn/5×ATP/5× substrate solution is added to each well of the assay plate to start the reaction. The solutions are mixed well and incubated for 2 hours at room temperature.
# Using PlateTrak program (Screen) or Matrix Pipettor (SAR) 5 μL of 60 mM EDTA is added to stop the reaction. The solutions are mixed well and allowed to sit for 15-20 minutes before the next step.
# Using PlateTrak program (Screen) or Matrix Pipettor (SAR) 10 μl of Antibody Detection Reagent is added. The solutions are mixes well and incubated for 5 hours to O/N to allow antibodies to form complexes with phosphorylated substrate.
# Plates are read on AnalystHT using protocol Multi-Method protocol.
# [2] = molecular target: T1, Tyk2 (Homo sapiens, UniProt P29597); experiment: Tyk2 HTRF Assay; assay type: biochemical
# T1 construct: 450 ng/ml TYK2 KD (Cama Biosciences 08-147 Lot 06CBS-3022D); purchased Cama Biosciences (so in the source)
# T1 sequence (P29597 897-1176 limits assumed): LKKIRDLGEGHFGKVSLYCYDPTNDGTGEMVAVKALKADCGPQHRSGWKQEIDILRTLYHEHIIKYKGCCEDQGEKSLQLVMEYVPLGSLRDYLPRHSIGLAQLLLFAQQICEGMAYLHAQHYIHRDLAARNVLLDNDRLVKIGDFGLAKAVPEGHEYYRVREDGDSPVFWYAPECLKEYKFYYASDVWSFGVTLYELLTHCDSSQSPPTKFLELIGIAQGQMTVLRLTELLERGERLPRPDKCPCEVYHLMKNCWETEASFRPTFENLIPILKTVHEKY
# Protocol: The following is an example of an assay that can be used to determine the Tyk2 inhibitory activity of a test compound.
# 25 μl/well DMSO is added to Columns 2 and 14 (except 28.5 μl is added to well P14 of Greiner 384-well polypropylene plate). 20 μl/well DMSO is added to all remaining wells.
# 5 mM compound solutions are added by addition of 5 μl of 30 mM compound to 25 μl DMSO in Columns 2 and 14 of plate. 1.5 mM reference control is prepared by addition of 1.5 μl of 30 mM JAK3 Inhibitor VI to 28.5 μl DMSO in Well P14.
# Serial dilution is then performed by the following steps: (i) Compounds in Column 2 are mixed by pipetting 20 μl up and down 6X; (ii) 10 μl/well compounds in DMSO are transferred from one column to the next column for Columns 2-11; (iii) wells are mixed by pipetting 20 μl up and down 6×; (iv) tips are washed 3×25 μl DMSO, 2×25 μl next DMSO; (v) steps i-iv repeated for Columns 14-23.
# The following buffers are prepared:
# Assay Buffer: 50 mM HEPES pH 7.6; 1 mM DTT; 10 mM MgCl2; 0.01% Triton X100; 0.01% BSA; and 0.1 mM EDTA.
# Kinase in Assay Buffer: 450 ng/ml TYK2 KD (Cama Biosciences 08-147 Lot 06CBS-3022D).
# Substrate/Detection Mixture (1×ATP) in Assay Buffer: 188 nM DyLight 647-Streptavidin (Pierce 21824); 5 μM Biotin-EQEDEPEGDYFEWLE (Lyn Substrate Peptide); 750 ng/ml Eu-anti-phospho-Tyrosine (PerkinElmer AD0069); 62.5 μM ATP; 80 nM Substrate Peptide (American Peptide Company 332722).
# Substrate/Detection Mixture (20×ATP) in Assay Buffer: 188 nM DyLight 647-Streptavidin; 5 μM Biotin-EQEDEPEGDYFEWLE; 750 ng/ml Eu-anti-phospho-Tyrosine; 1250 μM ATP; 80 nM Substrate Peptide.
# 14.5 μl/well Enzyme Mix or Dilution Buffer (Background Controls) is added to Costar 384 well black plates.
# Compound addition and mixture is performed by the following steps: (i) 0.5 μl/well DMSO/compounds in DMSO is transferred from Greiner 384-well polypropylene plate to a plate containing 14.5 μl/well Enzyme Mix and Dilution Buffer; (ii) mixed by pipetting 10 μl up and down 4×; (iii) tips are washed 4×10 μl in DMSO, 2×20 μl in other DMSO; (iv) steps i-iii are repeated until all plates are completed.
# 10 μl/well Substrate/Detection Mixtures is added and incubated at room temperature 2 hours (on shaker for first 2+ minutes).
# 10 μl/well 50 mM EDTA/0.01% Triton X100 is added and incubated >15 minutes at room temperature (on shaker for first 2+ minutes).
# Plates are read at 665 nm and 620 nm emission on Analyst GT protocol HTRF_SP_A (Counts= 665/620×10000).
# [3] = molecular target: T2, IKK-2 (Homo sapiens, UniProt O14920, S177E/S181E); experiment: IKK-2 screening assay (IKK2EE 33P Assay / IKK2EE NEMO HTRF Assay); assay type: biochemical
# T2 sequence (O14920 1-756 S177E/S181E): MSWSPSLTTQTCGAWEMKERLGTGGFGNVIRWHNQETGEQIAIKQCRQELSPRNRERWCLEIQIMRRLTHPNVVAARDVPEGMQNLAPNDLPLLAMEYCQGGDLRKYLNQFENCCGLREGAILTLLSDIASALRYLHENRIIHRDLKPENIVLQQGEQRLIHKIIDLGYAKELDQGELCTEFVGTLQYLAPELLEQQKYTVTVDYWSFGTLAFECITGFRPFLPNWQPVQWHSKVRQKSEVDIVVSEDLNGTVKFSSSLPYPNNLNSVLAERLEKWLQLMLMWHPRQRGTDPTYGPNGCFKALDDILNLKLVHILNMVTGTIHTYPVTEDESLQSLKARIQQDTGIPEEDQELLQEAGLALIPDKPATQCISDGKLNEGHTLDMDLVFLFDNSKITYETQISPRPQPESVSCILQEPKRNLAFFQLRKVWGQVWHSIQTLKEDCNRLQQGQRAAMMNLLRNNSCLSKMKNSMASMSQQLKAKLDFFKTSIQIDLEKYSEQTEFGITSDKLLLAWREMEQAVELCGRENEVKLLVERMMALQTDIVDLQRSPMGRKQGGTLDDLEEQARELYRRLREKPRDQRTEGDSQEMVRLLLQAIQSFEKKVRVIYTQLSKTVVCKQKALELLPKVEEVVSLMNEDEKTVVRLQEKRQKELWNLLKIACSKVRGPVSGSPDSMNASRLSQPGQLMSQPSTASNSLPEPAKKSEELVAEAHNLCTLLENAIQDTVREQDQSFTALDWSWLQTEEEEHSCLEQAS
# Protocol: The following is an example of an assay that can be used to determine the IKK2EE inhibitory activity of a test compound.
# A reaction buffer (pH 7.8) is prepared containing HEPES (20 mM), MgCl2 (10 mM), EDTA (0.1 mM), DTT (1 mM) and Triton X-100 (0.004%). IKK2EE (0.75 μg/ml is used. GST-IKBα (50 μg/ml) is used as substrate. Adenosine 5′-triphosphate (1.5 μM with ^33P-ATP 5 nCi/μl) is used. Reactions are stopped with trichloroacetic acid (6.25%).
# Appropriate amounts of test compounds or controls in 100% DMSO are added to the assay plate. A peptide-substrate solution (PSS) is prepared by adding peptide stock to an appropriate volume of buffer (peptide concentration in the PSS will be about 100 μg/ml). An enzyme-peptide solution (EPS) is prepared by adding enzyme stock to an appropriate volume of PSS (the enzyme concentration in the EPS will be about 1 μg/ml). An ATP solution is prepared by adding ATP stock to an appropriate volume of buffer (the ATP concentration will be 15 μM).
# 85 μl of EPS is added to the assay wells (or PSS to positive control wells) of 96 well polypropylene plates. The ATP solution is then completed by adding ^33P-ATP (to a final concentration of 50 μCi/ml).
# The reaction is initiated by adding 10 μl ATP solution to each well. Plates are shaken from about 12 seconds and allowed to incubate at room temperature for 1 hours. 100 μl of trichloroacetic acid solution (12.5%) is added to stop the reaction and the plates are incubated at room temperature for at least 10 minutes. The assay plates are harvested onto a Millipore Multiscreen harvest Plate FC using an appropriate harvester and the harvest plates are washed with 1×PBS solution for about 10 seconds (continuous flow). Harvest plates are allowed to dry thoroughly and the bottoms of the plates are sealed. 20-50 μl of Microscint20 is added to each well, tops are sealed and plates are read using an appropriate scintillation counter.
# A reaction buffer (pH 7.6) is prepared containing HEPES (20 mM), MgCl2 (10 mM), EDTA (0.05 mM), DTT (1 mM) and Triton X-100 (0.004%). IKK2EE-NEMO (0.7 μg/ml is used. GST-IKBα (0.5 μg/ml) is used as substrate. Adenosine 5′-triphosphate (1.5 μM) is used. Detection reagents used are mouse anti-P-IKBα (30 ng/ml), Eu anti-mouse (300 ng/ml) and Cy5 anti-GST (11.5 μg/ml). Reactions are stopped with EDTA (20 mM).
# An enzyme solution (ES) is prepared by adding enzyme stock to an appropriate volume of buffer (enzyme concentration in the ES will be about 1.7 ng/ml). A detection mixture (DM) is prepared by adding ATP (final conc. 3.75 μM), mouse anti-P-IKBα (final conc. 75 ng/ml), GST-IKBα (final conc. 1.26 μg/ml), Eu anti-mouse in buffer (final conc. 750 ng/ml).
# 5 μl of compound (solvated in 10% DMSO) is added to assay wells (or 10% DMSO to control wells) of low binding reaction plates. […] ES is added to assay wells (or buffer to control wells) and the reaction is initiated by adding 10 μl DM to all wells. Plates are incubated at room temperature for 45 minutes. Stop mixture is prepared by adding EDTA (final conc. 70 mM) and Cy5 anti-GST (final conc. 40 μg/ml) to an appropriate volume of buffer. Stop mixture is added and plates are shaken for 20 seconds and incubated at room temperature for at least 3 hours (preferably in the dark). Plates are read on an Analyst HT using Multi-Method HTRF.
Structure (SMILES),IC50 [1],IC50 [2],melting point,IC50 [3]
"COc1ccccc1-n1c(=O)[nH]c2c(C(N)=O)nc(-c3cccc4[nH]cnc34)nc21 [Compound 99, 2-(1H-benzo[d]imidazol-4-yl)-9-(2-methoxyphenyl)-8-oxo-8,9-dihydro-7H-purine-6-carboxamide]",> 30 µM,0.1 to 5 µM,312 °C,
"NC(=O)c1nc(-c2cccnc2Cl)nc2c1[nH]c(=O)n2-c1ccccc1 [Compound 4, 2-(2-chloropyridin-3-yl)-8-oxo-9-phenyl-8,9-dihydro-7H-purine-6-carboxamide]",> 30 µM,,283 to 286 °C,> 30 µM
"N#Cc1cccc(-c2nc(C(N)=O)c3[nH]c(=O)n(-c4ccccc4)c3n2)c1 [Compound 27, 2-(3-cyanophenyl)-8-oxo-9-phenyl-8,9-dihydro-7H-purine-6-carboxamide]",10.1 to 20 µM,,328 to 330 °C,> 30 µM

# Further lines, results first:
IC50 [1],IC50 [2],melting point,IC50 [3],Structure (SMILES)
0.1 to 5 µM,0.1 to 5 µM,290 to 292 °C,,"NC(=O)c1nc(-c2cccc(O)c2)nc2c1[nH]c(=O)n2-c1c(Cl)cccc1Cl [Compound 69, 9-(2,6-Dichlorophenyl)-2-(3-hydroxyphenyl)-8-oxo-7-hydropurine-6-carboxamide]"
10.1 to 20 µM,,203 to 204 °C,> 30 µM,"COc1ccccc1-n1c(=O)[nH]c2c(C(N)=O)nc(-c3ccc4cc[nH]c4c3)nc21 [Compound 11, 2-(1H-indol-6-yl)-9-(2-methoxyphenyl)-8-oxo-8,9-dihydro-7H-purine-6-carboxamide]"
10.1 to 20 µM,,334 to 335 °C,> 30 µM,"NC(=O)c1nc(-c2cccnc2)nc2c1[nH]c(=O)n2Cc1ccccc1 [Compound 1, 9-benzyl-8-oxo-2-(pyridin-3-yl)-8,9-dihydro-7H-purine-6-carboxamide]"
